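Assay format: 96-well plates, 48-hour exposure. Abbreviation: GI50, concentration required for 50% inhibition of growth.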 Active and inactive are the calls of the source. Cut-off read from the data, not from the text of the source: active = GI50 up to about 1.1 µM and inactive = higher.
What was measured:
Test in all cases: NCI anticancer screen, dose series, 48 h
A498 = test system: A498
A549 = test system: A549
COLO 205 = test system: COLO 205
HOP-92 = test system: HOP-92
HT-29 = test system: HT-29
KM12 = test system: KM12
LOX IMVI = test system: LOX IMVI
MOLT-4 = test system: MOLT-4
NCI-H226 = test system: NCI-H226
OVCAR-4 = test system: OVCAR-4
RXF 393 = test system: RXF 393
SF-295 = test system: SF-295
SF-539 = test system: SF-539
SK-MEL-28 = test system: SK-MEL-28
SNB-75 = test system: SNB-75
SW-620 = test system: SW-620
TK-10 = test system: TK-10
UACC-62 = test system: UACC-62
Hs-578T = test system: Hs-578T

Measured: GI50

ClC1CCC2OOC1O2 (centres undefined)
inactive: A498 > 100 µM | A549 > 100 µM | COLO 205 > 100 µM | HOP-92 > 100 µM | HT-29 89.5 µM | KM12 > 100 µM | LOX IMVI > 100 µM | MOLT-4 > 100 µM | NCI-H226 > 100 µM | OVCAR-4 > 100 µM | RXF 393 > 100 µM | SF-295 > 100 µM | SF-539 > 100 µM | SK-MEL-28 > 100 µM | SNB-75 82.2 µM | SW-620 > 100 µM | TK-10 > 100 µM | UACC-62 89.1 µM

CCC1CN2CCC3(c4ccccc4)CC(C(=O)OC)=CC1C23 (centres undefined)
inactive: A498 18.6 µM | A549 17.3 µM | COLO 205 16.9 µM | HOP-92 11.7 µM | HT-29 16.7 µM | KM12 15 µM | LOX IMVI 14.6 µM | MOLT-4 49.2 µM | NCI-H226 17 µM | OVCAR-4 14.5 µM | RXF 393 18.3 µM | SF-295 18.2 µM | SF-539 16.8 µM | SK-MEL-28 17.7 µM | SNB-75 17.3 µM | SW-620 16.9 µM | TK-10 25.4 µM | UACC-62 15.9 µM

O=C(/C=C/c1c(O)ccc2ccccc12)c1cccc2ccccc12
inactive: A498 > 100 µM | A549 > 100 µM | COLO 205 > 100 µM | HOP-92 > 100 µM | HT-29 > 72.4 µM | KM12 > 100 µM | LOX IMVI > 59 µM | MOLT-4 51.5 µM | NCI-H226 > 57.9 µM | RXF 393 > 100 µM | SF-295 > 100 µM | SF-539 > 100 µM | SK-MEL-28 > 100 µM | SNB-75 > 52.4 µM | SW-620 > 37.1 µM | TK-10 > 100 µM | UACC-62 > 100 µM

CC1=C[C@]2(O)C(=O)[C@H](C)C[C@H]3[C@@H](CC[C@@](C)(O)/C=C\2C1=O)C3(C)C
inactive: A498 27.4 µM | A549 35.5 µM | COLO 205 16.7 µM | HOP-92 23 µM | HT-29 28.4 µM | KM12 34.7 µM | LOX IMVI 17.3 µM | MOLT-4 17.9 µM | NCI-H226 33.7 µM | OVCAR-4 23.6 µM | RXF 393 15.4 µM | SF-295 24.5 µM | SF-539 22.4 µM | SK-MEL-28 18.5 µM | SNB-75 33.3 µM | SW-620 19.4 µM | TK-10 32 µM | UACC-62 16 µM

COc1cccc2c1C(=O)c1c(O)c3c(c(O)c1C2=O)C[C@@](O)(C(C)=O)CC3S(=O)(=O)O (some centres undefined)
inactive: A498 > 100 µM | A549 > 100 µM | COLO 205 > 100 µM | HOP-92 > 100 µM | HT-29 > 100 µM | KM12 > 100 µM | LOX IMVI > 100 µM | MOLT-4 > 100 µM | NCI-H226 > 100 µM | OVCAR-4 > 100 µM | RXF 393 > 100 µM | SF-295 > 100 µM | SF-539 > 100 µM | SK-MEL-28 > 100 µM | SNB-75 > 50.5 µM | SW-620 > 100 µM | TK-10 > 100 µM | UACC-62 > 100 µM

COc1ccc(CCn2cnc3ccccc32)cc1
inactive: A498 > 100 µM | A549 > 100 µM | COLO 205 > 100 µM | HOP-92 > 100 µM | HT-29 > 100 µM | Hs-578T > 100 µM | KM12 > 100 µM | MOLT-4 > 100 µM | NCI-H226 > 100 µM | OVCAR-4 > 100 µM | RXF 393 > 100 µM | SF-295 > 100 µM | SF-539 > 100 µM | SNB-75 > 100 µM | SW-620 > 100 µM | TK-10 > 100 µM | UACC-62 > 100 µM

Cc1cc(C)nc(NS(=O)(=O)c2ccc(Nc3c4ccccc4nc4c(C(=O)Nc5ccc(S(=O)(=O)Nc6cc(C)on6)cc5)cccc34)cc2)n1
inactive: A498 19.2 µM | A549 34.7 µM | COLO 205 17.7 µM | HOP-92 18.7 µM | HT-29 19.9 µM | KM12 20 µM | LOX IMVI 19.8 µM | MOLT-4 24.8 µM | NCI-H226 21 µM | OVCAR-4 22.6 µM | RXF 393 20.9 µM | SF-295 22.8 µM | SF-539 16 µM | SK-MEL-28 23.6 µM | SNB-75 32.3 µM | SW-620 23.4 µM | TK-10 26.8 µM | UACC-62 17.8 µM

— ChEMBL document CHEMBL1201862, “PubChem BioAssay data set” (2004)
